# Reference: patent US10870647B2, “Imidazopyridine derivative, method for preparing same, and pharmaceutical composition containing same as active ingredient for preventing or treating cancer” (DAEGU-GYEONGBUK MEDICAL INNOVATION FOUNDATION, priority 2016, dated 2020)
# Where two headings read alike, the source gives them in different places.
# Experiments:
# Assay in all cases: Kinase selectivity, scanMAX Kinase assay panel (DiscoverX), % control at 1 uM
# Type in all cases: binding
# [1] = biological target: T1, scanMAX Kinase assay panel (Homo sapiens, UniProt P36888, K663Q); settings: FLT3 (K663Q); 1 uM; read-out: Percent Control (%)
# T1 construct: purchased DiscoverX
# T1 sequence (P36888 27-993 K663Q): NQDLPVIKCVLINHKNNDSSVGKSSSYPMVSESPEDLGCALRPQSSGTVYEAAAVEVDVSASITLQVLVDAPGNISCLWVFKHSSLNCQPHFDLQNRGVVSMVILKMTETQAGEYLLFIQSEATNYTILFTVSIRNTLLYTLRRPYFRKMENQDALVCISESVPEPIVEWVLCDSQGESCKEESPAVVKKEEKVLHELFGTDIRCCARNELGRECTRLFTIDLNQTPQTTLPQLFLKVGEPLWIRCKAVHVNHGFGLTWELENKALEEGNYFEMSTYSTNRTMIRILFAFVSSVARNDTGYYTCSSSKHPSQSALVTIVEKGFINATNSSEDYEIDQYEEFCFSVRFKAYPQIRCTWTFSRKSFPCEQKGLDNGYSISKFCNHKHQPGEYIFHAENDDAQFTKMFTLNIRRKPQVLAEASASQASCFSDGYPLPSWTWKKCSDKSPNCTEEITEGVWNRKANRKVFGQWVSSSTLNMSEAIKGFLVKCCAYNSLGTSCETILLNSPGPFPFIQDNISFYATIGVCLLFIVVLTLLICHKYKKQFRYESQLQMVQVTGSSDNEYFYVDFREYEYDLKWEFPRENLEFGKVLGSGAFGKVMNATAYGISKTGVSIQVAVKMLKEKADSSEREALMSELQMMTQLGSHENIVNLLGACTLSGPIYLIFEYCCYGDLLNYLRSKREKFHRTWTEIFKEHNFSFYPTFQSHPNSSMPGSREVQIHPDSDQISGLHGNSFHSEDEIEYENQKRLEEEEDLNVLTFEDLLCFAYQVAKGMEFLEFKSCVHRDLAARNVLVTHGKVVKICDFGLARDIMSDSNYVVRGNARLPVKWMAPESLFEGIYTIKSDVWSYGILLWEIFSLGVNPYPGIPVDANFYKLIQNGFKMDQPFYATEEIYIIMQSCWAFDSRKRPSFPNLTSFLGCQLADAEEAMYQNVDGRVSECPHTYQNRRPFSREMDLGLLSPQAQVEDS
# Procedure, shortened: (§1)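 Each kinase was first exposed to the test compound at 1 uM in DMSO. Signal was then normalised to positive and negative controls to give % control. Finally, any enzyme showing <35% control was judged inhibited.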
# [2] = biological target: T2, scanMAX Kinase assay panel (Homo sapiens, UniProt P42336, E545A); settings: PIK3CA (E545A); 1 uM; read-out: Percent Control (%)
# T2 construct: purchased DiscoverX
# Procedure, shortened: as §1
# [3] = biological target: T3, scanMAX Kinase assay panel (Homo sapiens, UniProt P24941); settings: CDK2; 1 uM; read-out: Percent Control (%)
# T3 construct: purchased DiscoverX
# Procedure, shortened: as §1
# [4] = biological target: T4, scanMAX Kinase assay panel (Homo sapiens, UniProt P17612); settings: PKAC-alpha; 1 uM; read-out: Percent Control (%)
# T4 construct: purchased DiscoverX
# Procedure, shortened: as §1
# [5] = biological target: T5, scanMAX Kinase assay panel (Homo sapiens, UniProt O75676); settings: 1 uM, read-out: Percent Control (%)
# T5 construct: purchased DiscoverX
# Procedure, shortened: as §1
# [6] = biological target: T6, scanMAX Kinase assay panel (Homo sapiens, UniProt O14920); settings: IKK-beta; 1 uM; read-out: Percent Control (%)
# T6 construct: purchased DiscoverX
# T6 sequence (O14920 1-756): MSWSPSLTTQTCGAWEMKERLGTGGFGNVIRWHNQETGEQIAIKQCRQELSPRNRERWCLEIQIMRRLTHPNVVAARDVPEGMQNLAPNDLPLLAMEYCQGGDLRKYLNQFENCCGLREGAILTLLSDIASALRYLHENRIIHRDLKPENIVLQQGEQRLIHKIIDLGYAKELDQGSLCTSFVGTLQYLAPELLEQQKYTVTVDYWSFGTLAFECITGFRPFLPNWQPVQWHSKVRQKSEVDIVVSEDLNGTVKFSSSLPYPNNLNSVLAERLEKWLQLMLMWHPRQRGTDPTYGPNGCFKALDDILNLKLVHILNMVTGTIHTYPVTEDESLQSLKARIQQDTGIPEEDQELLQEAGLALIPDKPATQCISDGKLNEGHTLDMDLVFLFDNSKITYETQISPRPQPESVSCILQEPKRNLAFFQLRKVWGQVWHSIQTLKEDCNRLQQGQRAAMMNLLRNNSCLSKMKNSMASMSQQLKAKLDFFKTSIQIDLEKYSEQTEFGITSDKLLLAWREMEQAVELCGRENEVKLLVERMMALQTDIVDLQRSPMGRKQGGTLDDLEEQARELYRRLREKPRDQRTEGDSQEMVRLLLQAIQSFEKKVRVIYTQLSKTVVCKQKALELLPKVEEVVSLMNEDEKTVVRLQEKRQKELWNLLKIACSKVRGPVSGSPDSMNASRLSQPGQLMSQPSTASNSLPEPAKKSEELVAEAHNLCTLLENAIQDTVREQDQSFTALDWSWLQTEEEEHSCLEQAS
# Procedure, shortened: as §1
# T2 sequence (P42336 whole entry E545A): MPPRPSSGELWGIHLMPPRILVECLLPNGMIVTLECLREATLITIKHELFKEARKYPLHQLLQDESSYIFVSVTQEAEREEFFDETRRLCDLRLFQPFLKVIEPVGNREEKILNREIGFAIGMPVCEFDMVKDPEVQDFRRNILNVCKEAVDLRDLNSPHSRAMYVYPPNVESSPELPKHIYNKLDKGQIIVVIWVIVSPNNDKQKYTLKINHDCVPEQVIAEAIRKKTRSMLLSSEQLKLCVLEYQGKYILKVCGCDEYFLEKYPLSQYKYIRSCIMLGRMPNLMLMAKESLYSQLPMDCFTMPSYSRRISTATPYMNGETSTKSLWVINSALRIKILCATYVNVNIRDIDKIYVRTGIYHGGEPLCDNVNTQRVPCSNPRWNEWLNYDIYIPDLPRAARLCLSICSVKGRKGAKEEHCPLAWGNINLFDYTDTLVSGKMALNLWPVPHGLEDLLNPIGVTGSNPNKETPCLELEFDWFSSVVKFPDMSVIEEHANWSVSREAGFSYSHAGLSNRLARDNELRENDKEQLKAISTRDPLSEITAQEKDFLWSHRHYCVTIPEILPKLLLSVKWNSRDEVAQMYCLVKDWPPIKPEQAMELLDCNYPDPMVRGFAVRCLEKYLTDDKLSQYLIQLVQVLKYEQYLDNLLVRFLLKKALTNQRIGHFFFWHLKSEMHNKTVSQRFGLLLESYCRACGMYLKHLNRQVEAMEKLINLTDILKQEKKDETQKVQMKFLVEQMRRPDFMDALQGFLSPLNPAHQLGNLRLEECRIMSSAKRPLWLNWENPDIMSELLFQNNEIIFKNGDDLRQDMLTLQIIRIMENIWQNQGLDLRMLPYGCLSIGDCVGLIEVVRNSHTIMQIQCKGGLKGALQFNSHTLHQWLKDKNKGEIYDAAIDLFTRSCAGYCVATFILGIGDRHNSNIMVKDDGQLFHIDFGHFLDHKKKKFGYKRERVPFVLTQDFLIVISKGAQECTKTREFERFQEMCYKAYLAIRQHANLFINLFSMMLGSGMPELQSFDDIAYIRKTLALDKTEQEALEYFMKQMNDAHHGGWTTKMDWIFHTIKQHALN
# T5 sequence (O75676 whole entry): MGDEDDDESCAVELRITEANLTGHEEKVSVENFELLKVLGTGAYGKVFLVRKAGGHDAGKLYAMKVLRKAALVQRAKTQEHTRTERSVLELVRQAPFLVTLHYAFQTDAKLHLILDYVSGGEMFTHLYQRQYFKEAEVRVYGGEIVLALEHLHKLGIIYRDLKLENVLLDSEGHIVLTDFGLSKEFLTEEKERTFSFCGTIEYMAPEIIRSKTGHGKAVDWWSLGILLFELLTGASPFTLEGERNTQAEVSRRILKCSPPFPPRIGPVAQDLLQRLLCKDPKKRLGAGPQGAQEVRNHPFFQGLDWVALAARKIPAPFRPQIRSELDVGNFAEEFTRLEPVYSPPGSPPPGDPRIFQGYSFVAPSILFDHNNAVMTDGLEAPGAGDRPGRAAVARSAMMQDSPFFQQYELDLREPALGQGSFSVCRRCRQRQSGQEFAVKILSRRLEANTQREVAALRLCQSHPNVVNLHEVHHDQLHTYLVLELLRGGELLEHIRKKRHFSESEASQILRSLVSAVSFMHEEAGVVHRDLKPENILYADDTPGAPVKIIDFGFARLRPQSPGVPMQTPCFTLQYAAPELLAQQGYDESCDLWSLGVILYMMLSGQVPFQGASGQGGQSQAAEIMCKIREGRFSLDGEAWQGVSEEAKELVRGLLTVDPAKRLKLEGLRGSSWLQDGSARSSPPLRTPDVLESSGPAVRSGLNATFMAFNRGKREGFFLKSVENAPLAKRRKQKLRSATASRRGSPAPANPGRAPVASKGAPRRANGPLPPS
Structure (SMILES),remaining binding at 1 µM [1] [%],remaining binding at 1 µM [2] [%],remaining binding at 1 µM [3] [%],remaining binding at 1 µM [4] [%],remaining binding at 1 µM ([5]; RPS6KA4 (Kin.Dom.1-N-terminal)) [%],remaining binding at 1 µM ([5]; RPS6KA4 (Kin.Dom.2-C-terminal)) [%],remaining binding at 1 µM [6] [%]
"Cc1ccc(C(=O)Nc2ccc(CN3CCN(C)CC3)c(C(F)(F)F)c2)cc1C#Cc1cnc2c(Nc3cnn(C)c3)cccn12 [Example 1, 4-methyl-3-((8-((1-methyl-1H-pyrazol-4-yl)amino)imidazo[1,2-a]pyridin-3-yl)ethynyl)-N-(4-((4-methylpiperazin-1-yl)methyl)-3-(trifluoromethyl)phenyl)benzamide]",2,87,29,35,31,94,3
"Cc1cn(-c2cc(NC(=O)c3ccc(C)c(C#Cc4cnc5c(Nc6cnn(C)c6)cccn45)c3)cc(C(F)(F)F)c2)cn1 [Example 12, 4-methyl-N-(3-(4-methyl-1H-imidazol-1-yl)-5-(trifluoromethyl)phenyl)-3-((8-((1-methyl-1H-pyrazol-4-yl)amino)imidazo[1,2-a]pyridin-3-yl)ethynyl)benzamide]",1,79,85,93,85,100,39
Cc1ccc(NC(=O)C2(C(=O)Nc3ccc(F)cc3)CC2)cc1C#Cc1cnc2c(Nc3cnn(C(C)C)c3)cccn12 [Example 78],74,100,95,100,94,78,100
